Columns and labels:
[1] = target: recombinant GST-tagged MDM2 (Homo sapiens, UniProt Q00987); assay: HTRF assay of interaction between p53 peptide and GST-tagged MDM2; settings: inhibition of GST-MDM2 (160 ng/ml) binding to biotinylated p53-peptide
Protocol: The ability of a test compound to inhibit the interaction between p53 and MDM2 protein was measured by an HTRF (homogeneous time-resolved fluorescence) assay in which recombinant GST-tagged MDM2 binds to a peptide that resembles the MDM2-interacting region of p53 Aca-[…]-OH hereinafter p53-peptide). Binding of GST-MDM2 protein and p53-peptide (biotinylated on its N-terminal end) is registered by the FRET (fluorescence resonance energy transfer) between Europium (Eu)-labeled anti-GST antibody and streptavidin-conjugated Allophycocyanin (APC).
The test was performed in black flat-bottom 384-well plates (Costar) in a total volume of 40 uL containing: 90 nM biotinylated peptide, 160 ng/ml GST-MDM2, 20 nM streptavidin-APC (PerkinElmerWallac), 2 nM Eu-labeled anti-GST-antibody (PerkinElmerWallac), 0.02% bovine serum albumin (BSA), 1 mM dithiothreitol (DTT) and 20 mM […] (TBS) buffer as follows: add 10 uL of GST-MDM2 (640 ng/ml working solution) in reaction buffer to each well. Add 10 uL diluted compounds (1:5 dilution in reaction buffer) to each well, mix by shaking. Add 20 uL biotinylated p53 peptide (180 nM working solution) in reaction buffer to each well and mix on shaker. Incubate at 37° C. for 1 h. Add […] streptavidin-APC and Eu-anti-GST antibody mixture (6 nM Eu-anti-GST and 60 nM streptavidin-APC working solution) in TBS buffer with 0.02% BSA, shake at room temperature for 30 minutes and read using a TRF-capable plate reader at 665 and 615 nm (Victor 5, Perkin ElmerWallac). If not specified, the reagents were purchased from Sigma Chemical Co.

GST-tagged MDMX = target: T1, GST-tagged MDMX (Homo sapiens, UniProt O15151); assay: HTRF binding assay of GST-tagged MDMX to p53 peptide
T1 sequence (O15151 1-490): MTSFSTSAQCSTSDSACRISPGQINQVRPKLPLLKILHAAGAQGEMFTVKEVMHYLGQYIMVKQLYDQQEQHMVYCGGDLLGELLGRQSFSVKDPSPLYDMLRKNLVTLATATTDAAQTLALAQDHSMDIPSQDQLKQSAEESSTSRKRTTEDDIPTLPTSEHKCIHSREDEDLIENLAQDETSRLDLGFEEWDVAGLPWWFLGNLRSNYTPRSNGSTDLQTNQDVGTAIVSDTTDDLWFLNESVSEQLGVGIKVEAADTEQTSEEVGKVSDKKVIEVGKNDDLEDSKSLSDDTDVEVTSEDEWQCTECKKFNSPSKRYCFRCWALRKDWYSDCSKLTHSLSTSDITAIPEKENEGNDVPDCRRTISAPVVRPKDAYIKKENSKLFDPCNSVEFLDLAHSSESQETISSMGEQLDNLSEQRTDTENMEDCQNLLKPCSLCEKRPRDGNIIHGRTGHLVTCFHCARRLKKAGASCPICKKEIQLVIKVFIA

recombinant GST-tagged MDM2, sequence (Q00987 whole entry): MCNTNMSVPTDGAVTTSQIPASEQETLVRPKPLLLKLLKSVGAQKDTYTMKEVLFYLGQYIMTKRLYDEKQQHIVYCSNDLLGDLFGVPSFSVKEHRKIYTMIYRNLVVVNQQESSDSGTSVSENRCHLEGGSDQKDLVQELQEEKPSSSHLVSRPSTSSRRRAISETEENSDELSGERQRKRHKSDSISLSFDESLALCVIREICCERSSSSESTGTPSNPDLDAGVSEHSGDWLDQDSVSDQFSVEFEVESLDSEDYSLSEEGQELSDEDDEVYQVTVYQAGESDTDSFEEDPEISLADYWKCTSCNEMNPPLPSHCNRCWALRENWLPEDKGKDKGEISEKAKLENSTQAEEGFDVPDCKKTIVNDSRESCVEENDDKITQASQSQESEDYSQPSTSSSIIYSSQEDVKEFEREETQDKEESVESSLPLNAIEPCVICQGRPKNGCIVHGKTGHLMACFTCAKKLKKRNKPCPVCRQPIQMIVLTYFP

SMILES	IC50 [1]	IC50 (GST-tagged MDMX)
CCOc1cc(Cl)c(S(C)(=O)=O)cc1C1=N[C@@](C)(c2ccc(Cl)cc2)[C@@](C)(c2ccc(Cl)cc2)N1C(=O)N1CCC(NC(=O)N2CCCC2)CC1 [Example 30, Pyrrolidine-1-carboxylic acid {1-[(4S,5R)-2-(4-chloro-2-ethoxy-5-methanesulfonyl-phenyl)-4,5-bis-(4-chloro-phenyl)-4,5-dimethyl-4,5-dihydro-imidazole-1-carbonyl]-piperidin-4-yl}-amide]	12.7 nM	3350 nM
CCOc1cc(Cl)c(S(=O)(=O)NC(C)(C)C)cc1C1=N[C@@](C)(c2ccc(Cl)cc2)[C@@](C)(c2ccc(Cl)cc2)N1C(=O)N1CCC(N2CCNC(=O)CC2)CC1 [Example 53, 5-{(4S,5R)-4,5-Bis-(4-chloro-phenyl)-4,5-dimethyl-1-[4-(5-oxo-[1,4]diazepan-1-yl)-piperidine-1-carbonyl]-4,5-dihydro-1H-imidazol-2-yl}-N-tert-butyl-2-chloro-4-ethoxy-benzene sulfonamide]	14.5 nM	1110 nM
CCOc1cc(Cl)c(S(=O)(=O)NC(C)(C)C)cc1C1=N[C@@](C)(c2ccc(Cl)cc2)[C@@](C)(c2ccc(Cl)cc2)N1C(=O)N1CCN(CC(=O)N2CCN(C)CC2)CC1 [Example 47, 5-((4S,5R)-4,5-Bis-(4-chloro-phenyl)-4,5-dimethyl-1-{4-[2-(4-methyl-piperazin-1-yl)-2-oxo-ethyl]-piperazine-1-carbonyl}-4,5-dihydro-1H-imidazol-2-yl)-N-tert-butyl-2-chloro-4-ethoxy-benzenesulfonamide]	6.6 nM	1080 nM
CCOc1cc(Cl)c(S(C)(=O)=O)cc1C1=N[C@@](C)(c2ccc(Cl)cc2)[C@@](C)(c2ccc(Cl)cc2)N1C(=O)N1CCC(CC(=O)N(CCOC)CCOC)CC1 [Example 24, 2-{1-[(4S,5R)-2-(4-Chloro-2-ethoxy-5-methanesulfonyl-phenyl)-4,5-bis-(4-chloro-phenyl)-4,5-dimethyl-4,5-dihydro-imidazole-1-carbonyl]-piperidin-4-yl}-N,N-bis-(2-methoxy-ethyl)-acetamide]	7.2 nM	1520 nM
CCOc1cc(Cl)c(S(=O)(=O)NC(C)(C)C)cc1C1=N[C@@](C)(c2ccc(Cl)cc2)[C@@](C)(c2ccc(Cl)cc2)N1C(=O)N1CCN(CCC(O)CO)CC1 (stereo partly drawn) [Example 45, 5-{(4S,5R)-4,5-Bis-(4-chloro-phenyl)-1-[4-(3,4-dihydroxy-butyl)-piperazine-1-carbonyl]-4,5-dimethyl-4,5-dihydro-1H-imidazol-2-yl}-N-tert-butyl-2-chloro-4-ethoxy-benzene sulfonamide]	12.9 nM	1130 nM
CC(C)Oc1cc(Cl)c(S(N)(=O)=O)cc1C1=N[C@@](C)(c2ccc(Cl)cc2)[C@@](C)(c2ccc(Cl)cc2)N1C(=O)N1CCC(CC(N)=O)CC1 [Example 64, 2-{1-[(4S,5R)-2-(4-Chloro-2-isopropoxy-5-sulfamoyl-phenyl)-4,5-bis-(4-chloro-phenyl)-4,5-dimethyl-4,5-dihydro-imidazole-1-carbonyl]-piperidin-4-yl}-acetamide]	6.2 nM	283 nM
CCOCCN(CCOCC)C(=O)CN1CCN(C(=O)N2C(c3cc(S(C)(=O)=O)c(Cl)cc3OCC)=N[C@@](C)(c3ccc(Cl)cc3)[C@@]2(C)c2ccc(Cl)cc2)CC1 [Example 16, 2-{4-[(4S,5R)-2-(4-Chloro-2-ethoxy-5-methanesulfonyl-phenyl)-4,5-bis-(4-chloro-phenyl)-4,5-dimethyl-4,5-dihydro-imidazole-1-carbonyl]-piperazin-1-yl}-N,N-bis-(2-ethoxy-ethyl)-acetamide]	5 nM	849 nM
CCOc1cc(Cl)c(S(=O)(=O)NC(C)(C)C)cc1C1=N[C@@](C)(c2ccc(Cl)cc2)[C@@](C)(c2ccc(Cl)cc2)N1C(=O)N1CCN(CCC(N)=O)CC1 [Example 50, 3-{4-[(4S,5R)-2-(5-tert-Butylsulfamoyl-4-chloro-2-ethoxy-phenyl)-4,5-bis-(4-chloro-phenyl)-4,5-dimethyl-4,5-dihydro-imidazole-1-carbonyl]-piperazin-1-yl}-propionamide]	9.3 nM	1450 nM

From patent US20140148443A1, “Novel Imidazolines as dual inhibitors of MDM2 and MDMX” (priority 2012, published 2014)
